This note sets out measurements from PubChem BioAssay (NCI).

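Values below derive from 48-hour exposures of cells grown in 96-well plates, with endpoints linearly interpolated between the two concentrations bracketing the appropriate inhibition level. At the TGI there is no net growth.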

Common to all, as to assay: growth of human tumour cells (NCI), 48 h
In experiment [1] the test system is MDA-MB-435.
For experiment [2], the system named is MALME-3M melanoma.
The test system of experiment [3] is HCT-15 colon.
Experiment [4] deals with CCRF-CEM leukemia.
Experiment [5] deals with SK-OV-3 ovarian.
Experiment [6] relates to SK-MEL-28 melanoma.
Experiment [7] deals with OVCAR-3 ovarian.
Experiment [8] has as its system RXF 393 renal.
Experiment [9] deals with 786-0 renal.
Experiment [10] deals with BT-549 breast.

Take `Cc1cc(NS(=O)(=O)c2ccc(NC(NC(=O)OC(C)C)(C(F)(F)F)C(F)(F)F)cc2)nc(C)n1`: the TGI in [1], in [2], in experiment [3], in experiment [4], in [5] and in experiment [6] was more than 100 µM throughout. Also, the TGI in experiment [7], in experiment [8] and in [9] was more than 100 µM throughout.
For `CNC(=O)N(C)C(=O)c1ccccc1C(=O)N(C)C(=O)NC`, the TGI in experiment [2], in experiment [3], in experiment [4], in experiment [5], in experiment [6] and in experiment [7] was more than 10 µM each time. Also, the TGI in [8], in [10] and in [9] was more than 10 µM in each case.
With `CC1SCCc2nc3ccccc3n21` (centres undefined), the TGI in experiment [1], in [3], in [4], in experiment [5], in experiment [6] and in experiment [7] was more than 100 µM throughout. Besides, the TGI in [8], in [10] and in experiment [9] was more than 100 µM each time.
In the case of `CC(C)[C@H](NC(=O)OCc1ccccc1)C(=O)N[C@H](/C=C/C(=O)OC(C)(C)C)CO`, the TGI in experiment [1], in [2], in experiment [3], in [4], in [5] and in experiment [6] was more than 100 µM each time. Moreover, the TGI in experiment [7], in [8] and in [9] was more than 100 µM throughout.
Consider `COc1ccc(-c2cc(-c3ccc(Nc4ccnc5cc(C(F)(F)F)ccc45)cc3)nc(N)c2C#N)c2ccccc12`, for which the TGI in experiment [1], in [2], in [3], in experiment [5], in [7] and in experiment [8] was more than 100 µM throughout. In addition, the TGI in experiment [10] and in [9] was more than 100 µM each time.
Turning to `C/C(=C\CNc1ncnc2c1ncn2CCC#N)CO`, the TGI in experiment [1], in [2], in [4], in [5], in experiment [6] and in [7] was more than 100 µM each time. The TGI in experiment [8] and in experiment [9] was more than 100 µM each time.
`CC1=C(C(=O)OC(C)(C)C)C(c2ccc([N+](=O)[O-])cc2)C(C(=O)OC(C)(C)C)=C(C)N1`: the TGI came to 57.9 µM in experiment [1]; 62.5 µM in experiment [3]; 73.3 µM in [5]; 43.4 µM in experiment [6]; 36.7 µM in [7]; 36.2 µM in [8]. In addition, the TGI in experiment [10] worked out at 44.1 µM; in experiment [9], 38.7 µM.
As to `CC(C)=C[C@@H]1C[C@H](C)[C@H]2CC[C@H](C)[C@H]3C(=O)C(O)=C(C)C(=O)[C@]123`, the TGI in experiment [1], in experiment [2], in experiment [3], in experiment [4], in experiment [5] and in experiment [6] was more than 100 µM in each case. The TGI in experiment [7], in [10] and in experiment [9] was more than 100 µM each time.
Take `CC(=O)Nc1ccc(C(=O)NN2C(=O)CSC2c2ccccc2)cc1` (centres undefined): the TGI in experiment [1], in experiment [3], in experiment [4], in experiment [5], in experiment [6] and in experiment [7] was more than 100 µM throughout. Besides, the TGI was more than 100 µM in [8], 83 µM in experiment [10] and more than 100 µM in experiment [9].
On to `COC(=O)C1=C(C)C(=O)C2(CCCCCC2C(=O)OC)C1` (centres undefined), for which the TGI in experiment [2], in [3], in [4], in [5], in [6] and in experiment [8] was more than 100 µM throughout. Further, in experiment [9], the TGI was more than 100 µM.
Turning to `Cc1cccc2c1Oc1ncccc1C2NC(=O)CN(C)C` (centres undefined), the TGI in experiment [1], in experiment [2], in experiment [3], in [4], in experiment [5] and in experiment [7] was more than 10 µM in each case. Also, the TGI in experiment [10] and in experiment [9] was more than 10 µM each time.
Turning to `Nc1c(/C=C/c2cc3cc(C4=NCCN4)ccc3o2)[nH]c2cc(C3=NCCN3)ccc12`, the TGI in [1] is more than 100 µM; in [3] it was more than 100 µM; in experiment [5] it was more than 100 µM; in experiment [6], 97.4 µM; in experiment [7] it was more than 100 µM; in experiment [8], more than 100 µM. Besides, the TGI in [10] and in experiment [9] was more than 100 µM in each case.
With `CCCCN1/C(=N/Nc2n[nH]c(=O)c3ccccc23)SCC1c1ccc(Cl)cc1` (centres undefined), the TGI in experiment [1] was 31.9 µM; in experiment [2], 62 µM; in experiment [3] it was 28.7 µM; in experiment [5], more than 100 µM; in [6], 47.1 µM; in experiment [7] it was 37.6 µM. Besides, the TGI is 63.1 µM in [8] and 42.2 µM in [9].
For the molecule `Nc1nc(Nc2cc(F)c(Cl)c(F)c2)cc(=O)[nH]1`, the TGI in [1], in [2], in experiment [3], in experiment [4], in [5] and in experiment [6] was more than 100 µM each time. Also, the TGI in experiment [7], in [10] and in experiment [9] was more than 100 µM in each case.
Turning to `O=C1C[C@@]23CCC4(CC2=CCC[C@H]3O1)OCCO4`, the TGI in experiment [1], in experiment [2], in experiment [3], in experiment [5], in experiment [6] and in experiment [7] was more than 100 µM each time. The TGI in experiment [8] and in experiment [9] was more than 100 µM in each case.
Take `COc1ccc(NC(=S)Nc2cccc(C)n2)cc1`: the TGI in experiment [1], in experiment [3], in [4], in experiment [5], in experiment [6] and in experiment [8] was more than 100 µM throughout. The TGI in experiment [10] and in experiment [9] was more than 100 µM each time.
